Results as given in paper PMC12040169 (PLOS Biology, 2025).

Test: in vitro
Conditions: human, hela cells, % viability

## CCOC(=O)N1CCC2(CC1)Oc1ccc(-c3cc(OC)c(OC)c(OC)c3)cc1O2 [CBK090282]
Bulk resorufin, single well
  viability at 28.5 h, 10 µM: 90.9%

## Cn1c(N2CC[C@H](O)C2)nc2cc(C(=O)NCCC3CCCC3)ccc21 [CBK307447]
  viability at 28.5 h, 10 µM: 87.9%

## COc1ccc(NC(=S)NC(=N)N2CCN(Cc3ccccc3)CC2)cc1 [CBK267858]
  viability at 28.5 h, 10 µM: 95.1%

## Cc1csc(N2CCC(Nc3cc(CO)ccc3Cl)CC2)n1 [CBK306440]
  viability at 28.5 h, 10 µM: 89.7%

## c1ccc(Cn2c(CN3CCCC3)nc3ccccc32)cc1 [CBK269612]
  viability at 28.5 h, 10 µM: 87.7%

## Cc1cc(Cl)c(S(=O)(=O)Nc2ccc(I)cc2)cc1OCC(N)=O [CBK266418]
  viability at 28.5 h, 10 µM: 105%

## CS(=O)(=O)N1CC2(CCN(Cc3ncc[nH]3)CC2)c2ccccc21 [CBK126680]
  viability at 28.5 h, 10 µM: 98.8%

## CN1CCC(N2C[C@H](O)C[C@H]2c2nc(-c3ccc4c(c3)OCO4)no2)CC1 [CBK288931]
  viability at 28.5 h, 10 µM: 93.6%

## Cc1noc(C)c1S(=O)(=O)Nc1nnn[nH]1 [CBK062378]
  viability at 28.5 h, 10 µM: 112%

## C=CCn1c(-c2sc(NC(=O)c3ccc(CNC(=O)NC(C)C)cc3)nc2C)n[nH]c1=S [CBK297764]
  viability at 28.5 h, 10 µM: 111%

## Cc1c(Cl)cccc1NC(=S)N1CCC(C(N)=O)(N2CCCCC2)CC1 [CBK264900]
  viability at 28.5 h, 10 µM: 112%

## COc1ccc(NC(=O)CSc2cnn[nH]2)cc1OC [CBK270010]
  viability at 28.5 h, 10 µM: 102%

## CCn1c2ccccc2c2cc(C#N)c(=O)[nH]c21 [CBK013595]
  viability at 28.5 h, 10 µM: 93.9%

## COCc1cccc(-c2ncc(OCCN3CCCC3=O)nc2NC(C)=O)c1 [CBK145239]
  viability at 28.5 h, 10 µM: 94.8%

## C/C(CC(=O)Nc1ccccc1C(N)=O)=N\NC(=O)c1ccoc1C [CBK262957]
  viability at 28.5 h, 10 µM: 100%

## Fc1ccccc1CCOc1cncc(Cl)n1 [CBK176038]
  viability at 28.5 h, 10 µM: 86%

## O=C(Cn1nnc2ccccc2c1=O)NC1CCN2CCCCC12 (centres unmarked) [CBK305589]
  viability at 28.5 h, 10 µM: 105%

## FC(F)(F)c1cccc(-c2cnn(-c3ccc4c(c3)OCO4)n2)c1 [CBK112664]
  viability at 28.5 h, 10 µM: 89.6%

## COc1ccc(C)cc1S(=O)(=O)Nc1cc(OCCN2CCOCC2)c2occc2c1 [CBK067419C]
  viability at 28.5 h, 10 µM: 87.7%

## Cc1ccc(-c2csc(NC(=O)c3cccnc3)n2)cc1 [CBK072677]
  viability at 28.5 h, 10 µM: 96.9%

## Cc1c(C(=O)O)sc(S(=O)(=O)N2CCN(C(=O)CC(C)c3ccccc3)CC2)c1C(=O)O (centres unmarked) [CBK297143]
  viability at 28.5 h, 10 µM: 97.4%

## CN1C(=O)NC(c2ccc(Br)cc2)C2=C1CN(c1cccc(C(=O)O)c1)C2=O (centres unmarked) [CBK286729]
  viability at 28.5 h, 10 µM: 84.3%

## CSc1nncc(-c2ccc(Cl)cc2)n1 [CBK028747]
  viability at 28.5 h, 10 µM: 77.1%

## Cc1cc(O)cc(C2CCCN(C(=O)c3ccc(F)c(F)c3)C2)n1 (centres unmarked) [CBK283406]
  viability at 28.5 h, 10 µM: 105%

## COc1ccc(-c2noc([C@@H]3Cc4[nH]cnc4CN3C(=O)CCC(=O)O)n2)cc1 [CBK288967]
  viability at 28.5 h, 10 µM: 90.3%

## COc1ccc(-c2noc(CSc3nc4sc(C)c(C)c4c(=O)n3-c3ccccc3)n2)cc1 [CBK268264]
  viability at 28.5 h, 10 µM: 100%

## c1csc(-c2cc3cccnc3n2CCN2CCOCC2)c1 [CBK282718]
  viability at 28.5 h, 10 µM: 80.5%

## C/C(=N\NC(=O)C(C)Sc1ncccn1)C(C)(C)C (centres unmarked) [CBK020243]
  viability at 28.5 h, 10 µM: 104%

## COc1ccccc1N1CCN(c2nccc3sc(S(=O)(=O)NC4CCC4)cc23)CC1 [CBK038248C]
  viability at 28.5 h, 10 µM: 87.7%

## CCn1cncc1CN(CCCn1ccnc1)CC1CC=CCC1 (centres unmarked) [CBK283220]
  viability at 28.5 h, 10 µM: 101%

## CC(=O)N1CCN(c2nc3ccccc3s2)CC1 [CBK287362]
  viability at 28.5 h, 10 µM: 95%

## O=C(Nc1cccc(NS(=O)(=O)c2ccc(Cl)cc2)c1)c1ccco1 [CBK265956]
  viability at 28.5 h, 10 µM: 91.2%

## Nc1n[nH]c(=O)c2c1ncn2[C@H]1C[C@@H](O)[C@@H](CO)O1 [CBK201169]
  viability at 28.5 h, 10 µM: 93.7%

## CC1=NNC(=O)C1C(c1ccc(Cl)cc1Cl)C1C(=O)NN=C1C (centres unmarked) [CBK067756]
  viability at 28.5 h, 10 µM: 109%

## CN(C(=O)c1c[nH]nc1C1CCCN(Cc2ccnc3ccccc23)C1)C1CCCCC1 (centres unmarked) [CBK286491]
  viability at 28.5 h, 10 µM: 99.3%

## CC(=O)N1CC[C@H]2NC(=O)CNC(=O)C3(CCCC[C@H]2C1)CCN(C(=O)CN1CCCCC1)CC3 [CBK292120]
  viability at 28.5 h, 10 µM: 104%

## Nc1ncc(-c2cccc(O)c2)nc1-c1ccc(C(=O)NCCO)cc1 [CBK064143]
  viability at 28.5 h, 10 µM: 114%

## CC1(C)CC(=O)c2sc(NC(=O)c3ccc(Oc4ccccc4)cc3)nc2C1 [CBK144106]
  viability at 28.5 h, 10 µM: 95.5%

## NC(=O)CN1CCC(Oc2nccnc2OCc2cccnc2)CC1 [CBK083165]
  viability at 28.5 h, 10 µM: 107%

## CO[C@@]12CC[C@@H](O)C[C@@H]1N(C(=O)c1cccc3c1NCCC3)CC2 [CBK306741]
  viability at 28.5 h, 10 µM: 109%

## COc1cc(OC)c(NC(=O)c2c(-c3ccccc3)noc2C)cc1Cl [CBK268167]
  viability at 28.5 h, 10 µM: 101%

## CCN(CC1CCN(c2ccccn2)CC1)C(=O)C1(C#N)CCCC1 [CBK304096]
  viability at 28.5 h, 10 µM: 98.7%

## CCn1cc(Cl)c(C(=O)NC2CCN(c3cnccn3)CC2)n1 [CBK306922]
  viability at 28.5 h, 10 µM: 95.5%

## COc1ccccc1C(CNC(=O)Nc1cc(C)on1)N1CCCC1 (centres unmarked) [CBK304586]
  viability at 28.5 h, 10 µM: 94.5%

## OCCNc1nc(N2CCN(Cc3ccccc3)CC2)nc2ccccc12 [CBK266667C]
  viability at 28.5 h, 10 µM: 92.5%

## O=C(CSC1=NC(=O)C(c2ccccc2)C(=O)N1)NC1CCCCC1 (centres unmarked) [CBK263804]
  viability at 28.5 h, 10 µM: 103%

## CCOc1ccc2[nH]c(C(=O)N(C)CCN3CCCCC3)c(C)c2c1 [CBK282699]
  viability at 28.5 h, 10 µM: 86.3%

## COC(=O)CCc1ccc(S(=O)(=O)N2CCCN(Cc3c[nH]c(=O)[nH]c3=O)CC2)cc1 [CBK063082]
  viability at 28.5 h, 10 µM: 113%

## Cc1ccc(N2CCN(C3=NC(=O)/C(=C\c4ccc(O)c([N+](=O)[O-])c4)S3)CC2)cc1 [CBK264347]
  viability at 28.5 h, 10 µM: 92.9%

## Cc1cccc(CNc2nccnc2-c2cccs2)c1 [CBK036808]
  viability at 28.5 h, 10 µM: 104%

## COc1ccc(CCNC(=O)N(CCC#N)C2CCCCC2)cc1OC [CBK156363]
  viability at 28.5 h, 10 µM: 108%

## O=C(O)COc1ccccc1/C=C1\C(=O)NC(=O)N(c2ccc(O)cc2)C1=O [CBK265436]
Bulk resorufin, single well
  viability at 28.5 h, 10 µM: 85.2%

## Sc1nnc(COc2ccccc2)n1/N=C/c1ccccn1 [CBK265279]
  viability at 28.5 h, 10 µM: 102%

## COCCN1C(=O)C2(CC(=O)N(Cc3ccccc3)C2=O)c2cc(OC)ccc21 (centres unmarked) [CBK075177]
  viability at 28.5 h, 10 µM: 92.5%

## COc1ccc(CN2C(=O)COC[C@@H]2[C@H](O)c2ccc(NC(=O)c3ccc(OC)cc3)cc2)cc1 [CBK289675]
  viability at 28.5 h, 10 µM: 95.9%

## Clc1cccc(CNc2cncc(-c3cccs3)n2)c1 [CBK065609]
  viability at 28.5 h, 10 µM: 105%

## O=C(Nc1ccc2ncccc2c1)c1cnc(-c2cccc(C(F)(F)F)c2)c(-c2cccnc2)c1 [CBK037591]
  viability at 28.5 h, 10 µM: 89.9%

## COCCNC(=O)c1ccc(-c2cc(C)cs2)nc1NCC1CC1 [CBK106259]
  viability at 28.5 h, 10 µM: 106%

## O=C(Cc1ccccc1)N1CCN(S(=O)(=O)N2CCOCC2)CC1 [CBK268857]
  viability at 28.5 h, 10 µM: 108%

## c1cc(-c2ccc(OC3CCNCC3)cc2)c2cccnc2c1 [CBK103528T]
  viability at 28.5 h, 10 µM: 92.7%

## Cc1cc(C)n(-c2cc(N3CCN(S(=O)(=O)Cc4ccccc4)CC3)ccc2[N+](=O)[O-])n1 [CBK264407]
  viability at 28.5 h, 10 µM: 115%

## CCn1nc2c(c1C(=O)Nc1cccc(CCc3ccncc3)c1)CCCC2 [CBK285561]
  viability at 28.5 h, 10 µM: 87.5%

## O=C(O)C1C2CCC(CC2)C1C(=O)N1CCN(Cc2ccccc2Cl)CC1 (centres unmarked) [CBK270336]
  viability at 28.5 h, 10 µM: 100%

## COc1ccc([C@@]23CC[C@H](NC(=O)Nc4ccc(F)c(F)c4)C[C@@H]2N(Cc2ccccc2)CC3)cc1OC [CBK041333T]
  viability at 28.5 h, 10 µM: 94.5%

## CCc1ccccc1NC(=O)Cn1ncnc1Sc1nc2c(c(=O)n(C)c(=O)n2C)n1C [CBK265963]
  viability at 28.5 h, 10 µM: 87.6%

## COc1ccc2[nH]cc(CCNC(=O)c3ccc(C)nc3N3CCOCC3)c2c1 [CBK106203]
  viability at 28.5 h, 10 µM: 108%

## CC(C)(C)C(=O)N1CCC(c2nnc(-c3ccsc3)o2)CC1 [CBK283378]
  viability at 28.5 h, 10 µM: 89.5%

## CSc1nc(=O)c(CCC(=O)O)n[nH]1 [CBK019689]
  viability at 28.5 h, 10 µM: 110%

## CCN1CCN(C(=O)c2ccc3ccccc3n2)CC1 [CBK200249]
  viability at 28.5 h, 10 µM: 133%

## O=C1CSC(c2cn(-c3ccccc3)nc2-c2ccc(Br)cc2)N1Cc1ccccc1 (centres unmarked) [CBK263146]
  viability at 28.5 h, 10 µM: 97.4%

## COc1ccc(-c2nnc(SC(C)C(=O)Nc3cc(C)no3)n2CC2CCCO2)cc1 (centres unmarked) [CBK297879]
  viability at 28.5 h, 10 µM: 84.8%

## O=S(=O)(c1ccc(Cl)c(S(=O)(=O)N2CCOCC2)c1)c1ccc(Cl)c(S(=O)(=O)N2CCOCC2)c1 [CBK261369]
  viability at 28.5 h, 10 µM: 112%

## Cc1ccccc1OCC1CCCN(C(=O)C2CC(=O)OC2(C)C)C1 (centres unmarked) [CBK282062]
  viability at 28.5 h, 10 µM: 92.7%

## COc1ccc(-c2nc3ccc(C)cc3c(C(=O)NCCc3ccc(S(N)(=O)=O)cc3)c2C)cc1 [CBK267753]
  viability at 28.5 h, 10 µM: 123%

## CC(Cn1nnc2ccccc21)C(=O)O (centres unmarked) [CBK264727]
  viability at 28.5 h, 10 µM: 117%

## Nn1c(COc2ccccc2)nnc1SCC(=O)c1ccc2c(c1)CCCC2 [CBK268466]
  viability at 28.5 h, 10 µM: 100%

## CC(=O)N1CCCN(C(=O)Cn2cnc3ccc(F)cc3c2=O)CC1 [CBK245206]
  viability at 28.5 h, 10 µM: 106%

## COc1ccccc1Cc1cccc(C2CCN(C(=O)Cc3ccccc3)CC2)n1 [CBK286240]
  viability at 28.5 h, 10 µM: 88.1%

## O=C(c1ccco1)N1CCC2(CCCNC2)C1 (centres unmarked) [CBK153233C]
  viability at 28.5 h, 10 µM: 93.8%

## O=C(c1ccccc1)c1ccc(CNC(=O)C2(c3ccccc3)CCCC2)cc1 [CBK161526]
  viability at 28.5 h, 10 µM: 87.6%

## CCC(=O)NC(=S)Nc1ccc(C(=O)N2CCCC2)cc1 [CBK288464]
  viability at 28.5 h, 10 µM: 108%

## O=[N+]([O-])c1ccc(F)cc1NS(=O)(=O)c1ccccc1 [CBK000674]
  viability at 28.5 h, 10 µM: 93.1%

## O=C1CCC2(CCN1)CCN(Cc1cccc(-c3ccco3)c1)CC2 [CBK307264]
  viability at 28.5 h, 10 µM: 115%

## CCCCn1nc2[nH]c(=O)cc(C(F)F)c2c1C [CBK288011]
  viability at 28.5 h, 10 µM: 93.8%

## CCOC(=O)CN1CCN(S(=O)(=O)c2ccc3ccccc3c2)CC1 [CBK043738]
  viability at 28.5 h, 10 µM: 93.4%

## Cc1ccc(C(=O)N2CCC[C@@H]3NC(=O)c4ccccc4OCC/C=C/C[C@@H]32)c(O)n1 [CBK292080]
  viability at 28.5 h, 10 µM: 98.2%
